From patent US8883963B2 (Cadila Healthcare Limited, priority 2007, dated 2014)

How the values were obtained:
[1] = Stability in liver microsomes; assay type: in vitro ADME; details: 2 μM peptidomimetic, human liver microsomes, 37° C.; for half-life at 2 μM: pH 7.8, read-out: half-life (t1/2) when incubated with liver microsomes
Description: (§1) Reactions were terminated by the addition of TFA/H2O (15 mL, 10% (v/v)). […] The column was equilibrated with TFA/H20, at a flow rate of 1 mL/min.

[2] = biological target: DPP IV (Homo sapiens, UniProt P27487); experiment: Stability against DPP IV enzyme; assay type: in vitro ADME; details: 37° C.; for % degradation of peptidomimetics in 24 h when incubated with DPP-IV enzyme: 2 μM peptidomimetic; for half-life at 2 μM: DPP IV enzyme, pH 7.8, 2 μM peptidomimetic, read-out: half-life (t1/2) when incubated with DPP-IV enzyme
DPP IV, sequence (P27487 whole entry, species assumed): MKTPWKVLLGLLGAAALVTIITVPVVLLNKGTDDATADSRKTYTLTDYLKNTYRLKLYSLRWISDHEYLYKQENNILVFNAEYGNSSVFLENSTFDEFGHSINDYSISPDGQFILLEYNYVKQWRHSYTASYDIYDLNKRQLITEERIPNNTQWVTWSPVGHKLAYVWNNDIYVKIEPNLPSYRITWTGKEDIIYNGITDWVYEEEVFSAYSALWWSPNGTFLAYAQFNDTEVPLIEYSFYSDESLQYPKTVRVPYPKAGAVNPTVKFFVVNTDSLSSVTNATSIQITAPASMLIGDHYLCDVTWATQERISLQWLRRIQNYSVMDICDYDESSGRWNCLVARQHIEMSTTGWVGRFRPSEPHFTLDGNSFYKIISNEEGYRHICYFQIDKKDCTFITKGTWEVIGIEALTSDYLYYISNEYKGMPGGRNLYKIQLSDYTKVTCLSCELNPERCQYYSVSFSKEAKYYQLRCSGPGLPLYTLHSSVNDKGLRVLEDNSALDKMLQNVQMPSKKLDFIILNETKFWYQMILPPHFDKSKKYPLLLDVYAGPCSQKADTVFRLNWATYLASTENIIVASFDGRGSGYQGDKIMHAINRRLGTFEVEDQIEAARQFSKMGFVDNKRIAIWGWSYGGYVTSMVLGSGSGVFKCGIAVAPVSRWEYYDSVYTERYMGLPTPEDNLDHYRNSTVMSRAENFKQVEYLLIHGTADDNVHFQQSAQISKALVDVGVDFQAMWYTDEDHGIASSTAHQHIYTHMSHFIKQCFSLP
Description: as §1

[3] = biological target: T1, human glucagon receptor (Homo sapiens, UniProt P47871); experiment: In vitro human glucagon antagonist activity (inhibition of cAMP production) in CHO/human glucagon R cells; assay type: cell-based; details: with saturated concentration of glucagon peptide
T1 construct: The full-length cDNA was cloned in pcDNA3.1 (Invitrogen); expressed in transfected cells
T1 sequence (P47871 26-477): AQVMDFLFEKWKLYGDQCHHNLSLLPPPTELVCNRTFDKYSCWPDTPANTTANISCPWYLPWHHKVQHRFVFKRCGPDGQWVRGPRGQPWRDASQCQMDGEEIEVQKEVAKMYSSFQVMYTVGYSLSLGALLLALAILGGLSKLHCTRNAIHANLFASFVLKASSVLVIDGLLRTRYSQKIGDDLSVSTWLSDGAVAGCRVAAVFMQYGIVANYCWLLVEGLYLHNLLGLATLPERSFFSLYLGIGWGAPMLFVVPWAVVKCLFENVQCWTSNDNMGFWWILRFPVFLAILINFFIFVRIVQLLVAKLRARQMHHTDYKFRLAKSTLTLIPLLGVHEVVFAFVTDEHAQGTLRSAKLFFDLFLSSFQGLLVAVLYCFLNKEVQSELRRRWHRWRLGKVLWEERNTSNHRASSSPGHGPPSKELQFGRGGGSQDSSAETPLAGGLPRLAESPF

[4] = Stability in simulated intestinal fluid; assay type: in vitro ADME; details: 2 μM peptidomimetic, simulated intestinal fluid pH 7.5, 37° C.; for half-life at 2 μM: read-out: half-life (t1/2) when incubated with simulated intestinal fluid
Description: as §1

[5] = Stability in simulated gastric fluid; assay type: in vitro ADME; details: 2 μM peptidomimetic, simulated gastric fluid pH 1.5, 37° C.; for half-life at 2 μM: read-out: half-life (t1/2) when incubated with simulated gastric fluid
Description: as §1

[6] = Stability in human plasma; assay type: in vitro ADME; details: 2 μM peptidomimetic, pooled human plasma, 37° C.; for half-life at 2 μM: pH 7.8, read-out: half-life (t1/2) when incubated with human plasma
Description: as §1

[7] = test system: RIN5F (Rat Insulinoma) cells; experiment: In vitro glucose-dependent insulin secretion (RIN5F cell assay screening protocol); assay type: cell-based; details: 16.7 mM glucose load
[8] = biological target: T2, Human GLP-1 receptor (Homo sapiens, UniProt P43220); experiment: In vitro Human GLP-1 R agonist activity (cyclic AMP determination) in CHO/human GLP1R cells; assay type: cell-based
T2 construct: The full-length cDNA was cloned in pcDNA3.1(+); expressed in transfected cells
T2 sequence (P43220 24-463): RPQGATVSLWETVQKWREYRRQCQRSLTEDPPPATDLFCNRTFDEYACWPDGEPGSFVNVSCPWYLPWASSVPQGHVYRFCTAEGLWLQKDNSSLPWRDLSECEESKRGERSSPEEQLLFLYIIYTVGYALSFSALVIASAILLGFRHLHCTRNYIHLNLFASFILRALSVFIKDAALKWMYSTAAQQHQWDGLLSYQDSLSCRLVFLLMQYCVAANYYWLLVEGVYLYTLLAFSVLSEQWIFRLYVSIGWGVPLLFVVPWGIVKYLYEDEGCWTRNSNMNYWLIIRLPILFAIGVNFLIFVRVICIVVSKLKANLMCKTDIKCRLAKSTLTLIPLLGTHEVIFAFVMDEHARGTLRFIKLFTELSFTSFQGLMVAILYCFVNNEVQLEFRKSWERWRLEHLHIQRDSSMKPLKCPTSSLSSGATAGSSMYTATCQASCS

Row | Compound | % degradation of peptidomimetics in 24 h when incubated with liver microsomes [1] | % degradation of peptidomimetics in 24 h when incubated with DPP-IV enzyme [2] | half-life at 2 μM [2] | Human Glucagon receptor antagonistic activity shown as inhibition of cAMP production of Glucagon peptide ([3]; 1 nM test compound) | Human Glucagon receptor antagonistic activity shown as inhibition of cAMP production of Glucagon peptide ([3]; 10 nM test compound) | Human Glucagon receptor antagonistic activity shown as inhibition of cAMP production of Glucagon peptide ([3]; 100 nM test compound) | Human Glucagon receptor antagonistic activity shown as inhibition of cAMP production of Glucagon peptide ([3]; 1 μM test compound) | Human Glucagon receptor antagonistic activity shown as inhibition of cAMP production of Glucagon peptide ([3]; 10 μM test compound) | % degradation of peptidomimetics in 24 h when incubated with simulated intestinal fluid [4] | % degradation of peptidomimetics in 24 h when incubated with simulated gastric fluid [5] | % degradation of peptidomimetics in 24 h when incubated with human plasma [6] | half-life at 2 μM [6] | Insulin secretion ([7]; 0.1 nM test compd.) | Insulin secretion ([7]; 1 nM test compd.) | Insulin secretion ([7]; 10 nM test compd.) | Human GLP-1 R activity (cAMP release), % activity with respect to control ([8]; 1 nM test compound) | Human GLP-1 R activity (cAMP release), % activity with respect to control ([8]; 10 nM test compound) | Human GLP-1 R activity (cAMP release), % activity with respect to control ([8]; 100 nM test compound) | Human GLP-1 R activity (cAMP release), % activity with respect to control ([8]; 1 μM test compound) | Human GLP-1 R activity (cAMP release), % activity with respect to control ([8]; 10 μM test compound) | also measured
1 | CCc1cc(OC)ccc1-c1ccc(CC(NC(=O)[C@H](CC(=O)O)NC(=O)[C@H](CO)NC(=O)[C@@H](NC(=O)C(C)(Cc2ccccc2F)NC(=O)[C@@H](NC(=O)CNC(=O)C(CCC#N)NC(=O)C(C)(C)NC(=O)[C@H](Cc2c[nH]cn2)NC(=O)OC)[C@@H](C)O)[C@@H](C)O)C(=O)NC(CCCc2ccccc2)C(N)=O)cc1 (single isomer, unassigned) [compound 206] | 32% | 00% | > 24 h | 0 pmol/ml/μg prt | 0 pmol/ml/μg prt | 0 pmol/ml/μg prt | 0 pmol/ml/μg prt | 0 pmol/ml/μg prt | 00% | 00% | 00% | > 24 h | 12.1 ± 0.42 pg/µg/h | 14.6 ± 0.41 pg/µg/h | 27.8 ± 0.46 pg/µg/h | 39 ± 0.12% | 80 ± 0.15% | 86 ± 0.18% | 95 ± 0.03% | 98 ± 0.09% | half-life (t1/2) when incubated with liver microsomes [1]: (5) h; half-life at 2 μM [4]: > 24 h; half-life at 2 μM [5]: > 24 h
2 | CCc1cc(OC)ccc1-c1ccc(CC(NC(=O)[C@H](CC(=O)O)NC(=O)[C@H](CO)NC(=O)[C@@H](NC(=O)[C@H](Cc2ccccc2)NC(=O)[C@@H](NC(=O)CNC(=O)C(CCC#N)NC(=O)C(C)(C)NC(=O)[C@@H](N)Cc2c[nH]cn2)[C@@H](C)O)[C@@H](C)O)C(=O)NC(CCCc2ccccc2)C(N)=O)cc1 (single isomer, unassigned) [compound 29] | 32% | 00% | > 24 h | 20 ± 0.06 pmol/ml/μg prt | 18 ± 0.09 pmol/ml/μg prt | 16 ± 0.01 pmol/ml/μg prt | 14 ± 0.03 pmol/ml/μg prt | 12 ± 0.01 pmol/ml/μg prt | 00% | 00% | 00% | > 24 h | 16.3 ± 0.15 pg/µg/h | 22.4 ± 0.21 pg/µg/h | 36.2 ± 0.11 pg/µg/h | 96 ± 0.09% | 99 ± 0.07% | 99 ± 0.04% | 99 ± 0.01% | 99 ± 0.08% | half-life (t1/2) when incubated with liver microsomes [1]: (5) h; half-life at 2 μM [4]: > 24 h; half-life at 2 μM [5]: > 24 h
3 | CCc1cc(OC)ccc1-c1ccc(CC(C(=O)N(C)C(CCCc2ccccc2)C(N)=O)N(C)C(=O)[C@H](CC(=O)O)N(C)C(=O)[C@H](CO)NC(=O)[C@@H](NC(=O)C(C)(Cc2ccccc2F)NC(=O)[C@@H](NC(=O)CNC(=O)C(CCC#N)NC(=O)C(C)(C)NC(=O)[C@@H](N)Cc2c[nH]cn2)[C@H](C)O)[C@H](C)O)cc1 (single isomer, unassigned) [compound 154] | 83% | 74% | 9 h | 9 ± 0.11 pmol/ml/μg prt | 6 ± 0.12 pmol/ml/μg prt | 5 ± 0.14 pmol/ml/μg prt | 3 ± 0.22 pmol/ml/μg prt | 0 pmol/ml/μg prt | 46% | 12% | 75% | 8 h | 16.1 ± 0.22 pg/µg/h | 22.1 ± 0.26 pg/µg/h | 36.0 ± 0.36 pg/µg/h | 60 ± 0.12% | 92 ± 0.15% | 98 ± 0.18% | 99 ± 0.03% | 99 ± 0.09% | half-life at 2 μM [1]: 1 h; half-life (t1/2) when incubated with simulated intestinal fluid [4]: (6) h; half-life (t1/2) when incubated with simulated gastric fluid [5]: (8) h
4 | CCc1cc(OC)ccc1-c1ccc(CC(NC(=O)[C@H](CC(=O)O)NC(=O)[C@H](CO)NC(=O)[C@@H](NC(=O)[C@H](Cc2ccccc2)NC(=O)[C@@H](NC(=O)CNC(=O)C(CCC#N)NC(=O)C(C)(C)NC(=O)[C@@H](N)Cc2c[nH]cn2)[C@@H](C)O)[C@@H](C)O)C(=O)NC(CCCc2ccc(OC)cc2Cl)C(N)=O)cc1 (single isomer, unassigned) [compound 84] | 85% | 00% | > 24 h | 4 ± 0.01 pmol/ml/μg prt | 2 ± 0.17 pmol/ml/μg prt | 0 pmol/ml/μg prt | 0 pmol/ml/μg prt | 0 pmol/ml/μg prt | 00% | 45% | 00% | > 24 h | 12.1 ± 0.42 pg/µg/h | 14.6 ± 0.41 pg/µg/h | 27.8 ± 0.46 pg/µg/h | 38 ± 0.11% | 77 ± 0.16% | 85 ± 0.11% | 94 ± 0.08% | 97 ± 0.05% | half-life at 2 μM [1]: 2 h; half-life at 2 μM [4]: > 24 h; half-life at 2 μM [5]: 4 h
